Assay: Stability (integrity) testing of amorphous and polymorphic form under storage conditions, RP-HPLC
Assay type: physicochemical
Parameters: key to Impurity RRT 0.738 / Impurity RRT 0.949 / Impurity RRT 1.050 / Impurity RRT 1.550 / Impurity RRT 0.136 / Impurity RRT 0.720 / Impurity RRT 0.706 / Impurity RRT 1.18 / Impurity RRT 1.826: % of total UV absorption (HPLC peak area)
Summary of the method: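 Amorphous form and three batches of polymorphic Form I of the hemi calcium salt were stored under different atmospheric conditions. Purity measured by RP-HPLC on C18 with UV detection, drug as percent of total absorption; total impurity from summed impurity peak areas, impurities identified by relative retention time.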

[1] = 25° C./60% RH 12M, hemi calcium salt
[2] = 30° C./65% RH 1M, hemi calcium salt
[3] = 30° C./65% RH 2M, hemi calcium salt
[4] = 30° C./65% RH 3M, hemi calcium salt
[5] = 30° C./65% RH 6M, hemi calcium salt
[6] = 30° C./65% RH 9M, hemi calcium salt
[7] = 30° C./65% RH 12M, hemi calcium salt
[8] = 40° C./75% RH 1M, hemi calcium salt
[9] = 40° C./75% RH 2M, hemi calcium salt
[10] = 40° C./75% RH 3M, hemi calcium salt
[11] = 40° C./75% RH 6M, hemi calcium salt
[12] = Initial, listed as Batch 1 of Polymorphic Form I, hemi calcium salt

SMILES: CC(C)c1c(C(=O)Nc2ccc(CO)cc2)c(-c2ccccc2)c(-c2ccc(F)cc2)n1CC[C@@H](O)C[C@@H](O)CC(=O)[O-].CC(C)c1c(C(=O)Nc2ccc(CO)cc2)c(-c2ccccc2)c(-c2ccc(F)cc2)n1CC[C@@H](O)C[C@@H](O)CC(=O)[O-].[Ca+2] [PP00405, (3R, 5R)-7-[2-(4-fluorophenyl)-5-isopropyl-3-phenyl-4-[(4-hydroxymethylphenylamino)carbonyl]-pyrrol-1-yl]-3,5-dihydroxy-heptanoic acid, hemi calcium salt]
- Highest Impurity [1]: 0.412
- Impurity RRT 0.935 [1]: 0.412
- Impurity RRT 1.045 [1]: 0.396
- Impurity RRT 1.640 [1]: 0.051
- Total Impurity [1]: 1.318
- Water [1]: 5.47 % W/W
- Description (30° C./65% RH 1M): White
- Impurity RRT 1.094 (30° C./65% RH 1M): 0.149
- Impurity RRT 1.437 (30° C./65% RH 1M): 0.161
- Impurity RRT 1.593 (30° C./65% RH 1M): 0.061
- Impurity RRT 1.694 (30° C./65% RH 1M): 0.060
- Water (30° C./65% RH 1M): 4.16 % W/W
- Assay [2]: 98.25 % W/W
- Highest Impurity [2]: 0.370
- Impurity RRT 0.935 [2]: 0.370
- Impurity RRT 1.045 [2]: 0.300
- Impurity RRT 1.64 [2]: 0.047
- Total Impurity [2]: 1.228
- Description (30° C./65% RH 2M): White
- Impurity RRT 1.094 (30° C./65% RH 2M): 0.16
- Impurity RRT 1.180 (30° C./65% RH 2M): 0.044
- Impurity RRT 1.437 (30° C./65% RH 2M): 0.163
- Impurity RRT 1.593 (30° C./65% RH 2M): 0.080
- Impurity RRT 1.694 (30° C./65% RH 2M): 0.062
- Assay [3]: 98.23 % W/W
- Highest Impurity [3]: 0.390
- Impurity RRT 0.935 [3]: 0.390
- Impurity RRT 1.045 [3]: 0.374
- Impurity RRT 1.64 [3]: 0.044
- Total Impurity [3]: 1.320
- Water [3]: 3.85 % W/W
- Description (30° C./65% RH 3M): White
- Impurity RRT 1.094 (30° C./65% RH 3M): 0.167
- Impurity RRT 1.437 (30° C./65% RH 3M): 0.168
- Impurity RRT 1.593 (30° C./65% RH 3M): 0.081
- Impurity RRT 1.694 (30° C./65% RH 3M): 0.066
- Assay [4]: 98.15 % W/W
- Highest Impurity [4]: 0.416
- Impurity RRT 0.935 [4]: 0.416
- Impurity RRT 1.045 [4]: 0.405
- Impurity RRT 1.64 [4]: 0.048
- Total Impurity [4]: 1.350
- Water [4]: 4.73 % W/W
- Description (30° C./65% RH 6M): White
- Impurity RRT 0.136 (30° C./65% RH 6M): 0.049
- Impurity RRT 1.094 (30° C./65% RH 6M): 0.140
- Impurity RRT 1.437 (30° C./65% RH 6M): 0.150
- Impurity RRT 1.593 (30° C./65% RH 6M): 0.077
- Impurity RRT 1.694 (30° C./65% RH 6M): 0.044
- Assay [5]: 98.08 % W/W
- Highest Impurity [5]: 0.361
- Impurity RRT 0.935 [5]: 0.355
- Impurity RRT 1.045 [5]: 0.361
- Impurity RRT 1.640 [5]: 0.042
- Total Impurity [5]: 1.218
- Water [5]: 5.62 % W/W
- Description (30° C./65% RH 9M): White
- Impurity RRT 0.136 (30° C./65% RH 9M): 0.056
- Impurity RRT 1.094 (30° C./65% RH 9M): 0.134
- Impurity RRT 1.437 (30° C./65% RH 9M): 0.147
- Impurity RRT 1.593 (30° C./65% RH 9M): 0.080
- Impurity RRT 1.694 (30° C./65% RH 9M): 0.051
- Assay [6]: 98.15 % W/W
- Highest Impurity [6]: 0.387
- Impurity RRT 0.935 [6]: 0.387
- Impurity RRT 1.045 [6]: 0.351
- Impurity RRT 1.640 [6]: 0.033
- Total Impurity [6]: 1.239
- Water [6]: 5.55 % W/W
- Impurity RRT 0.136 (30° C./65% RH 12M): 0.240
- Impurity RRT 1.094 (30° C./65% RH 12M): 0.120
- Impurity RRT 1.437 (30° C./65% RH 12M): 0.148
- Impurity RRT 1.593 (30° C./65% RH 12M): 0.075
- Impurity RRT 1.694 (30° C./65% RH 12M): 0.055
- Assay [7]: 98.09 % W/W
- Highest Impurity [7]: 0.375
- Impurity RRT 0.935 [7]: 0.375
- Impurity RRT 1.045 [7]: 0.372
- Impurity RRT 1.640 [7]: 0.044
- Total Impurity [7]: 1.492
- Water [7]: 5.91 % W/W
- Description (40° C./75% RH 1M): White
- Impurity RRT 1.094 (40° C./75% RH 1M): 0.167
- Impurity RRT 1.437 (40° C./75% RH 1M): 0.155
- Impurity RRT 1.593 (40° C./75% RH 1M): 0.085
- Impurity RRT 1.694 (40° C./75% RH 1M): 0.071
- Assay [8]: 98.22 % W/W
- Highest Impurity [8]: 0.405
- Impurity RRT 0.935 [8]: 0.405
- Impurity RRT 1.045 [8]: 0.39
- Impurity RRT 1.64 [8]: 0.05
- Total Impurity [8]: 1.323
- Water [8]: 4.52 % W/W
- Description (40° C./75% RH 2M): White
- Impurity RRT 1.094 (40° C./75% RH 2M): 0.164
- Impurity RRT 1.180 (40° C./75% RH 2M): 0.049
- Impurity RRT 1.437 (40° C./75% RH 2M): 0.169
- Impurity RRT 1.593 (40° C./75% RH 2M): 0.082
- Impurity RRT 1.694 (40° C./75% RH 2M): 0.067
- Assay [9]: 98.16 % W/W
- Highest Impurity [9]: 0.408
- Impurity RRT 0.935 [9]: 0.407
- Impurity RRT 1.045 [9]: 0.408
- Impurity RRT 1.64 [9]: 0.046
- Total Impurity [9]: 1.39
- Water [9]: 4.63 % W/W
- Description (40° C./75% RH 3M): White
- Impurity RRT 1.094 (40° C./75% RH 3M): 0.162
- Impurity RRT 1.437 (40° C./75% RH 3M): 0.167
- Impurity RRT 1.593 (40° C./75% RH 3M): 0.094
- Impurity RRT 1.694 (40° C./75% RH 3M): 0.056
- Assay [10]: 98.11 % W/W
- Highest Impurity [10]: 0.403
- Impurity RRT 0.935 [10]: 0.403
- Impurity RRT 1.045 [10]: 0.396
- Impurity RRT 1.64 [10]: 0.049
- Total Impurity [10]: 1.330
- Water [10]: 4.64 % W/W
- Description (40° C./75% RH 6M): White
- Impurity RRT 1.094 (40° C./75% RH 6M): 0.146
- Impurity RRT 1.437 (40° C./75% RH 6M): 0.151
- Impurity RRT 1.593 (40° C./75% RH 6M): 0.098
- Impurity RRT 1.694 (40° C./75% RH 6M): 0.074
- Assay [11]: 98.22 % W/W
- Highest Impurity [11]: 0.391
- Impurity RRT 0.935 [11]: 0.391
- Impurity RRT 1.045 [11]: 0.351
- Impurity RRT 1.640 [11]: 0.031
- Total Impurity [11]: 1.242
- Water [11]: 5.55 % W/W
- Description (Initial): White
- Impurity RRT 0.720 (Initial): 0.046
- Impurity RRT 1.094 (Initial): 0.142
- Impurity RRT 1.437 (Initial): 0.162
- Impurity RRT 1.593 (Initial): 0.079
- Impurity RRT 1.694 (Initial): 0.068
- Assay [12]: 98.48 % W/W
- Highest Impurity [12]: 0.411
- Impurity RRT 1.045 [12]: 0.385
- Impurity RRT 1.64 [12]: 0.046
- Total Impurity [12]: 1.340
- Water [12]: 4.55 % W/W

Reference: patent US20080153896A1, “Polymorphic Forms of an HMG-CoA Reductase Inhibitor and Uses Thereof” (priority 2006, published 2008)
